Reference: patent publication US10124004B2, “Pyrido[3,4-d]pyrimidine derivative and pharmaceutically acceptable salt thereof” (Teijin Pharma Limited, priority 2015, dated 2018)
Read-outs that look alike come from different tables or passages of the source.

Experiments:
CDK2/cyclin A2 = biological target: T1, CDK2/cyclin A2 (Homo sapiens, UniProt P24941); assay: Human CDK2/cyclin A2 inhibitory activity (QS S Assist CDK2/Cyclin A2_FP Kit, IMAP fluorescence polarization); assay type: biochemical
T1 construct: purchased Carna Biosciences, Inc. QS S Assist CDK2/Cyclin A2_FP Kit
In short: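 Kinase activity read as fluorescence polarization (485/535 nm) after phosphorylated fluorescent substrate binds IMAP reagent (30 min, RT, dark). Enzyme (2.5 ng/well) reacted 60 min at RT with ATP/substrate/metal in HEPES pH 7.4 buffer with Tween 20 and DTT; no-enzyme wells define 0% activity; IC50 by curve fit.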

CDK4/cyclin D3 = biological target: T2, CDK4/cyclin D3 (Homo sapiens, UniProt P11802); assay: Human CDK4/cyclin D3 inhibitory activity (QS S Assist CDK4/Cyclin D3_FP Kit, IMAP fluorescence polarization); assay type: biochemical
T2 construct: purchased Carna Biosciences, Inc. QS S Assist CDK4/Cyclin D3_FP Kit
T2 sequence (P11802 whole entry): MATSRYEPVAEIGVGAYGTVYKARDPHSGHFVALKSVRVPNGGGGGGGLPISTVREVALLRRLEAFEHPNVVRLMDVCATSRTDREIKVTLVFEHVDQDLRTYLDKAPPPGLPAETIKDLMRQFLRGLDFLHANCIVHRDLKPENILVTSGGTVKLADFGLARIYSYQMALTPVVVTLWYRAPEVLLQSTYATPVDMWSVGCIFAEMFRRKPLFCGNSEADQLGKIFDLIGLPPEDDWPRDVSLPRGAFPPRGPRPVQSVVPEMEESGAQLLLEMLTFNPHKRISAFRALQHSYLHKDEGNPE
T2 sequence (P30281 whole entry partner): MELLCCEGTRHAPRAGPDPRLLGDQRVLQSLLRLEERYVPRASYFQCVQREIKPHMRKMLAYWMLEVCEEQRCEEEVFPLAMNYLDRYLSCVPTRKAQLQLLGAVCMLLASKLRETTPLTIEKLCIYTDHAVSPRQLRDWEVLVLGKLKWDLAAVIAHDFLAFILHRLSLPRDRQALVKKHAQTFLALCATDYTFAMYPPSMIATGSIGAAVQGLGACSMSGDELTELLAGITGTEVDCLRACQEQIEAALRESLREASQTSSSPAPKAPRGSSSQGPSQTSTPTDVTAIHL
In short: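 IMAP fluorescence-polarization kinase assay with kit ATP/substrate/metal mix and 12.5 to 25 ng/well enzyme in 20 mM HEPES pH 7.4, 0.01% Tween20, 2 mM DTT. Reaction ran 45 min at room temperature, then binding reagent was added for 30 min in the dark. IC50 was taken from dose-response fits of percent inhibition.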

[1] = 50% inhibitory concentration against CDK2/cyclin A2, given as class symbol
[2] = 50% inhibitory concentration against CDK4/cyclin D3, given as class symbol
[3] = Human CDK2/cyclin A2 inhibitory activity, read-out: CDK2 Activity symbol
[4] = Human CDK4/cyclin D3 inhibitory activity, read-out: CDK4 Activity symbol

| Structure (SMILES) | IC50 (CDK2/cyclin A2; [1]) | IC50 (CDK4/cyclin D3; [2]) | IC50 (CDK2/cyclin A2; [3]) | IC50 (CDK4/cyclin D3; [4]) |
| --- | --- | --- | --- | --- |
| CC(C)Nc1nc([C@@H](C)O)cc2cnc(Nc3ccc(N4CCC(C(C)(C)C(=O)O)CC4)nn3)nc12 [Compound 794] | ≥ 100 nM | < 10 nM | – | – |
| CC(C)Nc1nc(C(F)F)cc2cnc(Nc3ccc(O[C@H]4CC[C@H](O)CC4)cn3)nc12 [Compound 120] | – | – | ≥ 100 nM | 10 to 100 nM |
| CNCC(C)(C)c1ccc(Nc2ncc3cc([C@@H](C)O)nc(NC(C)C)c3n2)nc1 [Compound 263] | – | – | ≥ 100 nM | < 10 nM |
| CCCNc1nc([C@@H](C)OC)cc2cnc(Nc3ccc4c(n3)CCN(CCO)C4)nc12 [Compound 1119] | ≥ 100 nM | < 10 nM | – | – |
| COCC(C)(C)Nc1nc([C@@H](C)O)cc2cnc(Nc3ccc(CN4CCC(OC)CC4)cn3)nc12 [Compound 294] | – | – | ≥ 100 nM | < 10 nM |
| CCC(=O)c1cc2cnc(Nc3ccc(N4CCNCC4=O)cn3)nc2c(NC(C)C)n1 [Compound 1030] | ≥ 100 nM | 10 to 100 nM | – | – |
| CC(C)Nc1nc(C(C)O)cc2cnc(Nc3ccc(N4CCOCC4)cn3)nc12 (centres unmarked) [Compound 72] | – | – | ≥ 100 nM | < 10 nM |
| CO[C@H](C)c1cc2cnc(Nc3ccc(N4CCCC(O)C4)nn3)nc2c(NC(C)C)n1 (some centres unmarked) [Compound 286] | – | – | ≥ 100 nM | < 10 nM |
| CC(C)Nc1nc([C@@H](C)O)cc2cnc(Nc3ccc(N4CCNC[C@H]4C)cn3)nc12 [Compound 985] | ≥ 100 nM | < 10 nM | – | – |
| CC(C)Nc1nc([C@@H](C)O)cc2cnc(Nc3ccc(OCCN4CCNCC4=O)cn3)nc12 [Compound 550] | – | – | ≥ 100 nM | < 10 nM |
| FC(F)c1cc2cnc(Nc3ccc(N4CCNCC4)cn3)nc2c(NC2CCOCC2)n1 [Compound 4] | – | – | 10 to 100 nM | < 10 nM |
| C[C@@H](O)c1nc(N[C@H]2CCCOC2)c2nc(Nc3ccc(N4CCNCC4)nn3)ncc2c1Cl [Compound 367] | – | – | ≥ 100 nM | < 10 nM |
| COC1CCN(Cc2ccc(Nc3ncc4cc([C@@H](C)OC)nc(NC(C)C)c4n3)nc2)CC1 [Compound 274] | – | – | ≥ 100 nM | < 10 nM |
| CC(C)Nc1nc([C@@H](C)O)cc2cnc(Nc3ccc(CN4CCC(O)C4)cn3)nc12 (some centres unmarked) [Compound 1041] | ≥ 100 nM | < 10 nM | – | – |
| CCNc1nc([C@@H](C)O)cc2cnc(Nc3ccc4c(n3)CCN(C(=O)OCCN(C)C)C4)nc12 [Compound 1142] | ≥ 100 nM | < 10 nM | – | – |
| CC(C)CNc1nc([C@@H](C)O)cc2cnc(Nc3ccc(CN4CCC(CO)CC4)cn3)nc12 [Compound 1024] | ≥ 100 nM | < 10 nM | – | – |
| CC(=O)c1cc2cnc(Nc3ccc(N4CCNCC4)nn3)nc2c(NC(C)C)n1 [Compound 328] | – | – | ≥ 100 nM | < 10 nM |
| CCCNc1nc([C@@H](C)O)cc2cnc(Nc3ccc4c(n3)CCN(CCO)C4)nc12 [Compound 1123] | ≥ 100 nM | 10 to 100 nM | – | – |
| CC(C)Nc1nc([C@@H](C)O)cc2cnc(Nc3cnc(N4CCNCC4)cn3)nc12 [Compound 789] | ≥ 100 nM | < 10 nM | – | – |
| COCC(C)(C)Nc1nc([C@@H](C)O)cc2cnc(Nc3ccc(CN4CCCOCC4)cn3)nc12 [Compound 293] | – | – | ≥ 100 nM | < 10 nM |
| CC(C)Nc1nc(C2CCOC2)cc2cnc(Nc3ccc(N4CCNCC4=O)cn3)nc12 (centres unmarked) [Compound 763] | ≥ 100 nM | < 10 nM | – | – |
| CCN1CCN(Cc2ccc(Nc3ncc4cc([C@@H](C)O)nc(NC(C)(C)COC)c4n3)nc2)CC1 [Compound 244] | – | – | ≥ 100 nM | < 10 nM |
| C[C@@H](O)c1cc2cnc(Nc3ccc(N4CCN(C=O)CC4=O)cn3)nc2c(N[C@@H]2CCCOC2)n1 [Compound 351] | – | – | ≥ 100 nM | < 10 nM |
| CC(C)Nc1nc([C@@H](C)O)cc2cnc(Nc3ccc(N4CCCC5(CCCN5)C4=O)cn3)nc12 (some centres unmarked) [Compound 630] | ≥ 100 nM | < 10 nM | – | – |
| C[C@@H](O)c1cc2cnc(Nc3ccc(N4CCNCC4)cn3)nc2c(NCCCF)n1 [Compound 1212] | ≥ 100 nM | < 10 nM | – | – |

| Structure (SMILES) | IC50 (CDK2/cyclin A2; [1]) | IC50 (CDK4/cyclin D3; [2]) | IC50 (CDK2/cyclin A2; [3]) | IC50 (CDK4/cyclin D3; [4]) |
| --- | --- | --- | --- | --- |
| CCNc1nc([C@@H](C)O)cc2cnc(Nc3ccc(CN4CCN(C(C)CO)CC4)cn3)nc12 (single isomer, unassigned) [Compound 1088] | ≥ 100 nM | < 10 nM | – | – |
| CO[C@H](C)c1cc2cnc(Nc3ccc(CN4CCOCC4=O)cn3)nc2c(NC(C)C)n1 [Compound 199] | – | – | ≥ 100 nM | 10 to 100 nM |
| FC(F)c1cc2cnc(Nc3ccc(N4CCNCC4)nn3)nc2c(NC2CCOCC2)n1 [Compound 365] | – | – | ≥ 100 nM | < 10 nM |
| CC(C)Nc1nc(C(C)O)cc2cnc(Nc3ccc(N4CCNC(C(F)(F)F)C4)nn3)nc12 (single isomer, unassigned) [Compound 990] | ≥ 100 nM | < 10 nM | – | – |
| C[C@@H](O)c1cc2cnc(Nc3ccc(OCCN(C)C)cn3)nc2c(N[C@H]2CCCOC2)n1 [Compound 629] | ≥ 100 nM | < 10 nM | – | – |
| CC(C)NC(=O)CN1CCN(c2ccc(Nc3ncc4cc([C@@H](C)O)nc(NC(C)C)c4n3)nn2)CC1 [Compound 968] | ≥ 100 nM | < 10 nM | – | – |
| C[C@@H](O)c1nc(N[C@H]2CCCOC2)c2nc(Nc3ccc(N4CCNCC4=O)cn3)ncc2c1Cl [Compound 751] | ≥ 100 nM | < 10 nM | – | – |
| CO[C@H](C)c1cc2cnc(Nc3ccc(CN4CCNC[C@@H]4C)cn3)nc2c(NC(C)C)n1 [Compound 979] | ≥ 100 nM | < 10 nM | – | – |
| CC(C)Nc1nc([C@@H](C)O)cc2cnc(Nc3cc4c(cn3)CN(C(=O)CO)CC4)nc12 [Compound 655] | ≥ 100 nM | 10 to 100 nM | – | – |
| CO[C@H](C)c1cc2cnc(Nc3ccc(N4CCN(C5COC5)CC4)nn3)nc2c(NC(C)C)n1 [Compound 680] | ≥ 100 nM | 10 to 100 nM | – | – |
| COCC(C)(C)Nc1nc([C@@H](C)O)cc2cnc(Nc3ccc(C4CCCNC4)cn3)nc12 (some centres unmarked) [Compound 333] | – | – | ≥ 100 nM | < 10 nM |
| CC(C)Nc1nc([C@@H](C)O)cc2cnc(Nc3ccc(CC(=O)N4CCNC5(CC5)C4)cn3)nc12 [Compound 669] | ≥ 100 nM | 10 to 100 nM | – | – |
| C[C@@H](O)c1cc2cnc(Nc3ccc(CN4CCNCC4)cn3)nc2c(NC2CCOCC2)n1 [Compound 255] | – | – | ≥ 100 nM | < 10 nM |
| CC(C)Nc1nc([C@@H](C)O)cc2cnc(Nc3ccc(N4CCC(O)CC4=O)cn3)nc12 (some centres unmarked) [Compound 926] | ≥ 100 nM | < 10 nM | – | – |
| CC(C)Oc1nc(C(C)O)cc2cnc(Nc3ccc(N4CCNCC4)nn3)nc12 (centres unmarked) [Compound 269] | – | – | ≥ 100 nM | < 10 nM |
| CC(C)Nc1nc([C@@H](C)O)cc2cnc(Nc3ccc(N4CCC(NC(C)C)CC4)nn3)nc12 [Compound 722] | ≥ 100 nM | < 10 nM | – | – |
| C[C@@H](O)c1nc(N[C@H]2CC[C@H](O)CC2)c2nc(Nc3ccc(N4CCNCC4)nn3)ncc2c1Cl [Compound 368] | – | – | ≥ 100 nM | < 10 nM |
| C[C@@H](O)c1cc2cnc(Nc3ccc4c(n3)CCN(C(=O)CO)C4)nc2c(N[C@H]2CCCOC2)n1 [Compound 1118] | ≥ 100 nM | < 10 nM | – | – |
| CO[C@H](C)c1cc2cnc(Nc3ccc(OC4CCNCC4)cn3)nc2c(NCC2CCOCC2)n1 [Compound 927] | ≥ 100 nM | < 10 nM | – | – |
| CCNc1nc([C@@H](C)O)cc2cnc(Nc3ccc(CN4CC5CCC(C4)N5C)cn3)nc12 [Compound 1222] | ≥ 100 nM | < 10 nM | – | – |
| CC(C)Nc1nc(C2CCOC2)cc2cnc(Nc3ccc(N4CCNCC4=O)cn3)nc12 (single isomer, unassigned) [Compound 773] | ≥ 100 nM | < 10 nM | – | – |
| Cc1nc(Nc2ncc3cc(C4CCOC4)nc(NC(C)C)c3n2)ccc1N1CCNCC1=O (single isomer, unassigned) [Compound 876] | ≥ 100 nM | < 10 nM | – | – |
| CC(=O)NCCCc1ccc(Nc2ncc3cc(C(F)F)nc(NC(C)C)c3n2)nc1 [Compound 152] | – | – | 10 to 100 nM | < 10 nM |
| CC(C)Nc1nc(C(C)O)cc2cnc(Nc3ccc(N4CCN(C(C)CO)CCC4=O)cn3)nc12 (single isomer, unassigned) [Compound 810] | ≥ 100 nM | < 10 nM | – | – |
